In assay [1] the test system is K562 (chronic myelogenous leukemia; leukemia cell line +ve for Bcr-Abl). Nature of the assay: Cytotoxicity assay, K562 tumor cells. The format is cell-based. To be noted: Homo sapiens, K562, 96 h treatment. On the procedure: (§1) The effect of the compounds of the invention on tumor cells was determined by the assay described by Latham et al., Oncogene 12:827-837 (1996). Tumor cells K562 (chronic myelogenous leukemia; leukemia cell line +ve for Bcr-Abl) or DU145 (prostate cancer) were plated in 12-well dishes at a cell density of 2.5×10^4 cells well. The plated cells were treated 24 hours later with a compound of the invention dissolved in DMSO at multiple concentrations ranging from 0.01 μM to 100 μM. The plates were examined 96 hours later under an inverted microscope, Olympus CK-2 using a 10× objective, and compound activity was noted by physical observation. When necessary, the total number of viable cells was determined by trypsinizing the wells and counting the number of viable cells, as determined by trypan blue exclusion, using a hemacytometer. Where “Lower” and “Upper” value are provided in Table 5, the IC50 was determined to be within that range. When only a “Lower” value is provided and no “Upper” value is listed, the IC50 was that value, or less than or greater than that value, as set forth in the Table.
(§2) The cytotoxicity of Compound 42, (Z)-6-((2,6-dichlorobenzyl)sulfonyl)-2-(4-hydroxy-3-nitrobenzylidene)-2H-benzo[b][1,4]thiazin-3(4H)-one, was determined according the assay method of Example 7 on the prostate (androgen dependent or independent), breast and pancreatic cancer cell lines listed in Table 6A, below, and the additional cell lines listed in Table 6B, below. The human mesenchymal stem cell line HMSC.hTERT and normal human fibroblast cell line HFL was included in the test.

The next assay relates to DU145 (prostate cancer). Nature of the assay: Cytotoxicity assay, DU145 tumor cells. To be noted: Homo sapiens, DU-145, 96 h treatment. The format is cell-based. The method, then:
as §1, §2

The mark [2] stands for this setting: lower limit of the IC50 range, or the IC50 itself (or its bound) where no Upper value is listed, read-out: K562 IC50 (μm) Lower (μm).
The mark [3] stands for this setting: upper limit of the IC50 range, read-out: K562 IC50 (μm) Upper (μm).
Setting [4] is: lower limit of the IC50 range, or the IC50 itself (or its bound) where no Upper value is listed, read-out: DU145 IC50 (μm) Lower (μm).
The mark [5] stands for this setting: upper limit of the IC50 range, read-out: DU145 IC50 (μm) Upper (μm).

IC50 data for 13 molecules are collected here from patent publication US9242945B2, “Substituted 2-benzylidene-2H-benzo[b][1,4]thiazin-3(4H)-ones, derivatives thereof, and therapeutic uses thereof” (TEMPLE UNIVERSITY—OF THE COMMONWEALTH SYSTEM OF HIGHER …, priority 2011, dated 2016).

Where two headings read alike, the source gives them in different places. Where only a bound is given, the exact number is not on record here.

A word on the IC50: it is the point on the concentration scale where inhibition reaches its midpoint. Take `O=C1Nc2cc(S(=O)(=O)Cc3c(Cl)cccc3Cl)ccc2S/C1=C\c1ccc(F)cc1F` [Compound 30, (Z)-6-((2,6-dichlorobenzyl)sulfonyl)-2-(2,4-difluorobenzylidene)-2H-benzo[b][1,4]thiazin-3(4H)-one]: the IC50 in assay [1] (setting [2]) was ≥ 1 µM; in assay [1] (setting [3]) it was ≤ 10 µM; with DU145 (prostate cancer) (setting [4]) it was ≥ 1 µM; in the assay with DU145 (prostate cancer) (setting [5]), ≤ 10 µM.

For the molecule `O=C1Nc2cc(S(=O)(=O)Cc3c(Cl)cccc3Cl)ccc2S/C1=C\c1c(F)cc(F)cc1F` [Compound 31, (Z)-6-((2,6-dichlorobenzyl)sulfonyl)-2-(2,4,6-trifluorobenzylidene)-2H-benzo[b][1,4]thiazin-3(4H)-one], the 50% inhibitory concentration (IC50) in assay [1] (setting [2]) was ≥ 1 µM; in assay [1] (setting [3]) it was ≤ 10 µM; with DU145 (prostate cancer) (setting [4]), ≥ 1 µM; with DU145 (prostate cancer) (setting [5]), ≤ 10 µM.

Consider `COC(=O)c1ccc(/C=C2\Sc3ccc(S(=O)(=O)Cc4c(Cl)cccc4Cl)cc3NC2=O)cc1` [Compound 32, (Z)-methyl 4-((6-((2,6-dichlorobenzyl)sulfonyl)-3-oxo-3,4-dihydro-2H-benzo[b][1,4]thiazin-2-ylidene)methyl)benzoate], for which the IC50 in assay [1] (setting [2]) was ≥ 1 µM; in assay [1] (setting [3]), ≤ 10 µM; in the assay on DU145 (prostate cancer) (setting [4]), ≥ 0.5 µM; in the assay on DU145 (prostate cancer) (setting [5]), ≤ 1 µM.

Regarding `O=C1Nc2cc(S(=O)(=O)Cc3c(Cl)cccc3Cl)ccc2S/C1=C\c1cccs1` [Compound 33, (Z)-6-((2,6-dichlorobenzyl)sulfonyl)-2-(thiophen-2-ylmethylene)-2H-benzo[b][1,4]thiazin-3(4H)-one], the IC50 in assay [1] (setting [2]) was ≥ 0.5 µM; in assay [1] (setting [3]) it was ≤ 1 µM; in the assay with DU145 (prostate cancer) (setting [4]) it was ≥ 0.5 µM; in the assay on DU145 (prostate cancer) (setting [5]) it was ≤ 1 µM.

As for `COC(=O)c1ccc(/C=C2\Sc3ccc(S(=O)(=O)Cc4c(Cl)cccc4Cl)cc3NC2=O)c([N+](=O)[O-])c1` [Compound 35, (Z)-methyl 4-((6-((2,6-dichlorobenzyl)sulfonyl)-3-oxo-3,4-dihydro-2H-benzo[b][1,4]thiazin-2-ylidene)methyl)-3-nitrobenzoate], the IC50 in assay [1] (setting [2]) is ≥ 1 µM; in assay [1] (setting [3]), ≤ 10 µM; with DU145 (prostate cancer) (setting [4]) it was > 10 µM.

In the case of `CSc1nccc(/C=C2\Sc3ccc(S(=O)(=O)Cc4c(Cl)cccc4Cl)cc3NC2=O)n1` [Compound 36, (Z)-6-((2,6-dichlorobenzyl)sulfonyl)-2-((2-(methylthio)pyrimidin-4-yl)methylene)-2H-benzo[b][1,4]thiazin-3(4H)-one], the IC50 in assay [1] (setting [2]) is > 2.5 µM; with DU145 (prostate cancer) (setting [4]) it was 2 µM.

`O=C1Nc2cc(S(=O)(=O)Cc3c(Cl)cccc3Cl)ccc2S/C1=C\c1ccnc(N2CCOCC2)n1` [Compound 37, (Z)-6-((2,6-dichlorobenzyl)sulfonyl)-2-((2-morpholinopyrimidin-4-yl)methylene)-2H-benzo[b][1,4]thiazin-3(4H)-one]: the IC50 is ≥ 1 µM in assay [1] (setting [2]), ≤ 10 µM in assay [1] (setting [3]), ≥ 1 µM in the assay with DU145 (prostate cancer) (setting [4]) and ≤ 10 µM with DU145 (prostate cancer) (setting [5]).

Regarding `Cc1ccc(S(=O)(=O)Oc2ccc(/C=C3\Sc4ccc(S(=O)(=O)Cc5c(Cl)cccc5Cl)cc4NC3=O)cc2[N+](=O)[O-])cc1` [Compound 38, (Z)-4-((6-((2,6-dichlorobenzyl)sulfonyl)-3-oxo-3,4-dihydro-2H-benzo[b][1,4]thiazin-2-ylidene)methyl)-2-nitrophenyl 4-methylbenzenesulfonate], the IC50 in assay [1] (setting [2]) was determined as 0.1 µM; in the assay with DU145 (prostate cancer) (setting [4]), 0.09 µM.

In the case of `O=C1Nc2cc(S(=O)(=O)Cc3c(Cl)cccc3Cl)ccc2S/C1=C\c1ccc(-c2nn[nH]n2)cc1` [Compound 39, (Z)-2-(4-(2H-tetrazol-5-yl)benzylidene)-6-((2,6-dichlorobenzyl)sulfonyl)-2H-benzo[b][1,4]thiazin-3(4H)-one], the IC50 in assay [1] (setting [2]) was ≥ 1 µM; in assay [1] (setting [3]), ≤ 10 µM; with DU145 (prostate cancer) (setting [4]), ≥ 1 µM; with DU145 (prostate cancer) (setting [5]) it was ≤ 10 µM.

For the molecule `COc1ccc2c(c1)S/C(=C\c1ccc(OC(C)=O)c([N+](=O)[O-])c1)C(=O)N2C(C)=O` [Compound 40, (Z)-4-((4-acetyl-7-methoxy-3-oxo-3,4-dihydro-2H-benzo[b][1,4]thiazin-2-ylidene)methyl)-2-nitrophenyl acetate], the IC50 in assay [1] (setting [2]) turned out to be 1.5 µM; in the assay with DU145 (prostate cancer) (setting [4]) it was 2 µM.

For `O=C1Nc2cc(S(=O)(=O)Cc3c(Cl)cccc3Cl)ccc2S/C1=C\c1ccc(OCc2ccccc2)c([N+](=O)[O-])c1` [Compound 41, (Z)-2-(4-(benzyloxy)-3-nitrobenzylidene)-6-((2,6-dichlorobenzyl)sulfonyl)-2H-benzo[b][1,4]thiazin-3(4H)-one], the IC50 in assay [1] (setting [2]) worked out at 0.75 µM; with DU145 (prostate cancer) (setting [4]), 1.5 µM.

Take `O=C1Nc2ccc(F)cc2S/C1=C\c1ccc(OCc2ccccc2)c([N+](=O)[O-])c1` [Compound 43, (Z)-2-(4-(benzyloxy)-3-nitrobenzylidene)-7-fluoro-2H-benzo[b][1,4]thiazin-3(4H)-one]: the IC50 (in assay [1] (setting [2]); with DU145 (prostate cancer) (setting [4])) was > 10 µM in each case.

Take `O=C1Nc2ccc(F)cc2S/C1=C\c1ccc(O)c([N+](=O)[O-])c1` [Compound 44, (Z)-7-fluoro-2-(4-hydroxy-3-nitrobenzylidene)-2H-benzo[b][1,4]thiazin-3(4H)-one]: the IC50 worked out at 0.25 µM in assay [1] (setting [2]) and 0.75 µM in the assay with DU145 (prostate cancer) (setting [4]).
